The first data set is described as follows: logP determination by retention times (calibration with alkan-2-ones). The conditions noted are these: logP(HCOOH), HCOOH.
Usually chromatographic logP stands for a lipophilicity value derived from retention on a column. A lower chromatographic logP goes with lower lipophilicity. Take `COc1cc(Nc2ncc(Cl)c(-c3sc(C)nc3C)n2)cc(OC)c1OC` [Example 874, 5-Chloro-4-(2,4-dimethyl-1,3-thiazol-5-yl)-N-(3,4,5-trimethoxyphenyl)-pyrimidine-2-amine]: the chromatographic logP was found to be 2.82.

Still in this data set, the particulars now being: logP, values marked *: HPLC on reversed-phase C 18, 40° C., mobile phase 0.1% aqueous formic acid and acetonitrile, linear gradient 10% to 95% acetonitrile.
`COCCCNc1nc(C)c(-c2ccnc(Nc3ccc(F)cc3)n2)s1` [Example 851, N-(4-fluorophenyl)-4-{2-[(3-methoxypropyl)amino]-4-methyl-1,3-thiazol-5-yl}pyrimidine-2-amine] yielded a chromatographic logP of 1.92.

`COCCCNc1nc(C)c(-c2ccnc(Nc3cccc(OC)c3)n2)s1` [Example 852, N-(3-methoxyphenyl)-4-{2-[(3-methoxypropyl)amino]-4-methyl-1,3-thiazol-5-yl}pyrimidine-2-amine] registered a chromatographic logP of 1.89.

Molecule `COCCCNc1nc(C)c(-c2ccnc(Nc3cccc(NC(C)=O)c3)n2)s1` [Example 853, N-{3-[(4-{2-[(3-methoxypropyl)amino]-4-methyl-1,3-thiazol-5-yl}pyrimidin-2-yl)amino]phenyl}acetamide] returned a chromatographic logP of 1.44.

For the molecule `COCCCNc1nc(C)c(-c2ccnc(Nc3ccc(NC(C)=O)cc3)n2)s1` [Example 854, N-{4-[(4-{2-[(3-methoxypropyl)amino]-4-methyl-1,3-thiazol-5-yl}pyrimidin-2-yl)amino]phenyl}acetamide], the chromatographic logP was found to be 1.4.

`COCCCNc1nc(C)c(-c2ccnc(Nc3ccc(C(C)=O)cc3)n2)s1` [Example 855, 1-{4-[(4-{2-[(3-methoxypropyl)amino]-4-methyl-1,3-thiazol-5-yl}pyrimidin-2-yl)amino]phenyl}ethanone] yielded a chromatographic logP of 1.81.

`COCCCNc1nc(C)c(-c2ccnc(Nc3ccc(N4CCCC4=O)cc3)n2)s1` [Example 856, 1-{4-[(4-{2-[(3-methoxypropyl)amino]-4-methyl-1,3-thiazol-5-yl}pyrimidin-2-yl)amino]phenyl}pyrrolidin-2-one] came in with a chromatographic logP of 1.57.

`COCCCNc1nc(C)c(-c2ccnc(Nc3ccc(F)c(C)c3)n2)s1` [Example 857, N-(4-fluoro-3-methylphenyl)-4-{2-[(3-methoxypropyl)amino]-4-methyl-1,3-thiazol-5-yl}pyrimidine-2-amine] returned a chromatographic logP of 2.11.

`COCCCNc1nc(C)c(-c2ccnc(Nc3ccc(OC)nc3)n2)s1` [Example 858, 4-{2-[(3-methoxypropyl)amino]-4-methyl-1,3-thiazol-5-yl}-N-(6-methoxypyridin-3-yl)pyrimidine-2-amine] registered a chromatographic logP of 1.57.

`COCCCNc1nc(C)c(-c2ccnc(Nc3cccc(N4CCCC4=O)c3)n2)s1` [Example 861, 1-{3-[(4-{2-[(3-methoxypropyl)amino]-4-methyl-1,3-thiazol-5-yl}pyrimidin-2-yl)amino]phenyl}pyrrolidin-2-one] came in with a chromatographic logP of 1.62. The chromatographic logP values of the last two molecules are within 0.2 log units of each other.

Consider `CCc1nc(C)c(-c2ccnc(Nc3ccc(F)c(OC)c3)n2)s1` [Example 863, 4-(2-ethyl-4-methyl-1,3-thiazol-5-yl)-N-(4-fluoro-3-methoxyphenyl)pyrimidine-2-amine], for which the chromatographic logP worked out at 2.99.

The molecule `COCC(C)Nc1nc(C)c(-c2ccnc(Nc3ccc(S(N)(=O)=O)cc3)n2)s1` (stereo not drawn) [Example 864, 4-[(4-{2-[(2-methoxy-1-methylethyl)amino]-4-methyl-1,3-thiazol-5-yl}pyrimidin-2-yl)amino]benzenesulphonamide] had a chromatographic logP of 1.49.

`COCCCNc1nc(C)c(-c2ccnc(Nc3cccc([N+](=O)[O-])c3)n2)s1` [Example 865, 4-{2-[(3-methoxypropyl)amino]-4-methyl-1,3-thiazol-5-yl}-N-(3-nitrophenyl)pyrimidine-2-amine] displayed a chromatographic logP of 2.03.

For the molecule `COCCCNc1nc(C)c(-c2ccnc(Nc3cc(OC)c(OC)c(OC)c3)n2)s1` [Example 866, 4-{2-[(3-methoxypropyl)amino]-4-methyl-1,3-thiazol-5-yl}-N-(3,4,5-trimethoxyphenyl)pyrimidine-2-amine], the chromatographic logP amounted to 1.73.

`COCCNc1nc(C)c(-c2ccnc(Nc3ccc(Cl)nc3)n2)s1` [Example 872, N-(6-chloropyridin-3-yl)-4-{2-[(2-methoxyethyl)amino]-4-methyl-1,3-thiazol-5-yl}pyrimidine-2-amine] returned a chromatographic logP of 1.71. The chromatographic logP values of the last two molecules are within 0.2 log units of each other.

`Cc1nc(C)c(-c2nc(Nc3ccccc3)ncc2Cl)s1` [Example 873, 5-chloro-4-(2,4-dimethyl-1,3-thiazol-5-yl)-N-phenylpyrimidine-2-amine]: the chromatographic logP turned out to be 3.26.

With `COc1cc(Nc2ncc(Cl)c(-c3sc(C)nc3C)n2)cc(OC)c1OC` [Example 874, 5-Chloro-4-(2,4-dimethyl-1,3-thiazol-5-yl)-N-(3,4,5-trimethoxyphenyl)-pyrimidine-2-amine], the chromatographic logP is 2.82.

On to `Cc1nc(C)c(-c2nc(Nc3cccc(Cl)c3)ncc2Cl)s1` [Example 875, 5-chloro-N-(3-chlorophenyl)-4-(2,4-dimethyl-1,3-thiazol-5-yl)pyrimidine-2-amine], for which the chromatographic logP stood at 3.86.

On to `CCc1nc(C)c(-c2nc(Nc3ccccc3)ncc2Cl)s1` [Example 876, 5-chloro-4-(2-ethyl-4-methyl-1,3-thiazol-5-yl)-N-phenylpyrimidine-2-amine], for which the chromatographic logP came out at 3.78.

Take `CCc1nc(C)c(-c2nc(Nc3ccc(Cl)cc3)ncc2Cl)s1` [Example 877, 5-chloro-N-(4-chlorophenyl)-4-(2-ethyl-4-methyl-1,3-thiazol-5-yl)pyrimidine-2-amine]: the chromatographic logP was found to be 4.48.

In turn, `CCc1nc(C)c(-c2nc(Nc3ccccc3Cl)ncc2Cl)s1` [Example 878, 5-chloro-N-(2-chlorophenyl)-4-(2-ethyl-4-methyl-1,3-thiazol-5-yl)pyrimidine-2-amine] registered a chromatographic logP of 4.62. The chromatographic logP values of the last two molecules are within 0.2 log units of each other.

Molecule `CCc1nc(C)c(-c2ccnc(Nc3ccc(N(C)C)cc3)n2)s1` [Example 879, N′-[4-(2-ethyl-4-methyl-1,3-thiazol-5-yl)pyrimidin-2-yl]-N,N-dimethylbenzene-1,4-diamine] gave a chromatographic logP of 1.56.

`CCc1nc(C)c(-c2ccnc(Nc3cccc(N(C)C)c3)n2)s1` [Example 880, N′-[4-(2-ethyl-4-methyl-1,3-thiazol-5-yl)pyrimidin-2-yl]-N,N-dimethylbenzene-1,3-diamine] had a chromatographic logP of 1.99.

Staying with this data set, now noted: values marked *: HPLC on reversed-phase C 18, 40° C., mobile phase 0.1% aqueous formic acid and acetonitrile, linear gradient 10% to 95% acetonitrile.
On to `CN(C)c1nc(C(F)(F)F)c(-c2ccnc(Nc3cccc([N+](=O)[O-])c3)n2)s1` [Example 859, 4-[2-(dimethylamine)-4-(trifluoromethyl)-1,3-thiazol-5-yl]-N-(3-nitrophenyl)pyrimidine-2-amine], for which the logP was 3.99*.

As to `CC(=O)Nc1cccc(Nc2nccc(-c3sc(N(C)C)nc3C(F)(F)F)n2)c1` [Example 860, N-[3-({4-[2-(dimethylamine)-4-(trifluoromethyl)-1,3-thiazol-5-yl]pyrimidin-2-yl}amino)phenyl]acetamide], the logP was 2.65*.

For `CC(=O)Nc1ccc(Nc2nccc(-c3sc(N(C)C)nc3C)n2)cc1` [Example 862, N-[4-({4-[2-(dimethylamine)-4-methyl-1,3-thiazol-5-yl]pyrimidin-2-yl}amino)phenyl]acetamide], the logP is 1.33*.

In the case of `CC(=O)c1ccc(Nc2nccc(-c3sc(N(C)C)nc3C)n2)cc1` [Example 867, 1-[4-({4-[2-(dimethylamine)-4-methyl-1,3-thiazol-5-yl]pyrimidin-2-yl}amino)phenyl]ethanone], the logP is recorded as 1.9*.

The values are drawn from patent US20090030024A1, “THIAZOLES AS FUNGICIDES” (priority 2005, published 2009).
